Measurements from patent US20110039721A1, “METHOD FOR PREDICTION ABOUT CARCINOGENICITY OF SUBSTANCE IN RODENT” (Chemicals Evaluation and Research Institute, priority 2007, published 2011).

System: mRNA expressed from the genes (A) to (D) in rat liver
Assay: Behavior of genes (mRNA expression level, oligo-DNA microarray) in rat liver after 28-day oral administration
Assay type: in vivo
Conditions: for Behavior of gene caused by administration of chemical substance, Gene No. 4846 / Behavior of gene caused by administration of chemical substance, Gene No. 2026 / Behavior of gene caused by administration of chemical substance, Gene No. 4218 / Behavior of gene caused by administration of chemical substance, Gene No. 6182 / Behavior of gene caused by administration of chemical substance, Gene No. 5600: gene group (A); for Behavior of gene caused by administration of chemical substance, Gene No. 4846: Unigene No. Rn.144554; for Behavior of gene caused by administration of chemical substance, Gene No. 2026 / Behavior of gene caused by administration of chemical substance, Gene No. 4218: Unigene No. Rn.167075; for Behavior of gene caused by administration of chemical substance, Gene No. 6182: Unigene No. Rn.5834; for Behavior of gene caused by administration of chemical substance, Gene No. 5600: Unigene No. Rn.9836; for Behavior of gene caused by administration of chemical substance, Gene No. 1494 / Behavior of gene caused by administration of chemical substance, Gene No. 2045 / Behavior of gene caused by administration of chemical substance, Gene No. 2203: gene group (B); for Behavior of gene caused by administration of chemical substance, Gene No. 1494: Unigene No. Rn.1430; for Behavior of gene caused by administration of chemical substance, Gene No. 2045: Unigene No. Rn.19329; for Behavior of gene caused by administration of chemical substance, Gene No. 2203: Unigene No. Rn.21240; for Behavior of gene caused by administration of chemical substance, Gene No. 533 / Behavior of gene caused by administration of chemical substance, Gene No. 725 / Behavior of gene caused by administration of chemical substance, Gene No. 1163 / Behavior of gene caused by administration of chemical substance, Gene No. 4973 / Behavior of gene caused by administration of chemical substance, Gene No. 4095 / Behavior of gene caused by administration of chemical substance, Gene No. 1334 / Behavior of gene caused by administration of chemical substance, Gene No. 6620 / Behavior of gene caused by administration of chemical substance, Gene No. 6303 / Behavior of gene caused by administration of chemical substance, Gene No. 5878 / Behavior of gene caused by administration of chemical substance, Gene No. 1131 / Behavior of gene caused by administration of chemical substance, Gene No. 1562 / Behavior of gene caused by administration of chemical substance, Gene No. 1741 / Behavior of gene caused by administration of chemical substance, Gene No. 893 / Behavior of gene caused by administration of chemical substance, Gene No. 6026 / Behavior of gene caused by administration of chemical substance, Gene No. 154 / Behavior of gene caused by administration of chemical substance, Gene No. 1993 / Behavior of gene caused by administration of chemical substance, Gene No. 813 / Behavior of gene caused by administration of chemical substance, Gene No. 2494 / Behavior of gene caused by administration of chemical substance, Gene No. 2546 / Behavior of gene caused by administration of chemical substance, Gene No. 3776 / Behavior of gene caused by administration of chemical substance, Gene No. 3929 / Behavior of gene caused by administration of chemical substance, Gene No. 1119 / Behavior of gene caused by administration of chemical substance, Gene No. 6742 / Behavior of gene caused by administration of chemical substance, Gene No. 5634: gene group (C); for Behavior of gene caused by administration of chemical substance, Gene No. 533: Unigene No. Rn.106184; for Behavior of gene caused by administration of chemical substance, Gene No. 725: Unigene No. Rn.108075; for Behavior of gene caused by administration of chemical substance, Gene No. 1163: Unigene No. Rn.11766; for Behavior of gene caused by administration of chemical substance, Gene No. 4973: Unigene No. Rn.118529; for Behavior of gene caused by administration of chemical substance, Gene No. 4095: Unigene No. Rn.119024; for Behavior of gene caused by administration of chemical substance, Gene No. 1334 / Behavior of gene caused by administration of chemical substance, Gene No. 6620: Unigene No. Rn.120914; for Behavior of gene caused by administration of chemical substance, Gene No. 6303: Unigene No. Rn.123063; for Behavior of gene caused by administration of chemical substance, Gene No. 5878: Unigene No. Rn.143213; for Behavior of gene caused by administration of chemical substance, Gene No. 1131: Unigene No. Rn.144946; for Behavior of gene caused by administration of chemical substance, Gene No. 1562: Unigene No. Rn.14744; for Behavior of gene caused by administration of chemical substance, Gene No. 1741: Unigene No. Rn.1647; for Behavior of gene caused by administration of chemical substance, Gene No. 893: Unigene No. Rn.164817; for Behavior of gene caused by administration of chemical substance, Gene No. 6026: Unigene No. Rn.167685; for Behavior of gene caused by administration of chemical substance, Gene No. 154: Unigene No. Rn.185941; for Behavior of gene caused by administration of chemical substance, Gene No. 1993: Unigene No. Rn.18728; for Behavior of gene caused by administration of chemical substance, Gene No. 813: Unigene No. Rn.201760; for Behavior of gene caused by administration of chemical substance, Gene No. 2494: Unigene No. Rn.23969; for Behavior of gene caused by administration of chemical substance, Gene No. 2546: Unigene No. Rn.24561; for Behavior of gene caused by administration of chemical substance, Gene No. 3776: Unigene No. Rn.43232; for Behavior of gene caused by administration of chemical substance, Gene No. 3929: Unigene No. Rn.4620; for Behavior of gene caused by administration of chemical substance, Gene No. 1119: Unigene No. Rn.9757; for Behavior of gene caused by administration of chemical substance, Gene No. 6742: Unigene No. Rn.9779; for Behavior of gene caused by administration of chemical substance, Gene No. 5634: Unigene No. Rn.9862; for Behavior of gene caused by administration of chemical substance, Gene No. 5726: gene group (D), Unigene No. Rn.9939
Description: A test solution was prepared by dissolving each of the carcinogens and the non-carcinogens shown in Tables 2 to 6 in the corresponding solvent shown in Tables 2 to 6. Each of the thus prepared test solutions and the solvents used for the preparation was administered by oral gavage to rats in each group. As the rats, male rats (F344 SPF rats) at 5 weeks of age obtained from Charles River Laboratories Japan, Inc. were used. The animals were divided into groups, each containing four individuals. The volume of the solvent administered to the vehicle control group was set to the same volume as that of the test solution administered to the carcinogen administration group or the non-carcinogen administration group. The administration of the test solution or the solvent was performed once daily for 28 days. Apiece was excised from the liver of each of the rats after a lapse of 28 days from the initiation of the administration, and the total RNA was extracted and purified.
The expression level of mRNA was compared between each of the chemical substance administration groups and the corresponding vehicle control group, and genes that satisfy the requirements described in (A) to (D) were selected, respectively.
The case where the expression level of mRNA in the carcinogen administration group or the non-carcinogen administration group is 1.5 times or more or 1/1.5 or less of the expression level of the corresponding mRNA expressed in the control group was determined to be significant. In this connection, the determination as to whether or not the change is significant was performed by taking into consideration the direction of increase or decrease in the expression level. In the case where the direction of increase or decrease is different as compared with the case where another carcinogen was administered, the change was determined to be not significant.

Clc1c(Cl)c(Cl)c(Cl)c(Cl)c1Cl [TS020, Hexachlorobenzene]
Behavior of gene caused by administration of chemical substance, Gene No. 4846 (mRNA vs vehicle control group): −
Behavior of gene caused by administration of chemical substance, Gene No. 2026 (mRNA vs vehicle control group): −
Behavior of gene caused by administration of chemical substance, Gene No. 4218 (mRNA vs vehicle control group): −
Behavior of gene caused by administration of chemical substance, Gene No. 6182 (mRNA vs vehicle control group): +
Behavior of gene caused by administration of chemical substance, Gene No. 5600 (mRNA vs vehicle control group): −
Behavior of gene caused by administration of chemical substance, Gene No. 1494 (mRNA vs vehicle control group): +
Behavior of gene caused by administration of chemical substance, Gene No. 2045 (mRNA vs vehicle control group): +
Behavior of gene caused by administration of chemical substance, Gene No. 2203 (mRNA vs vehicle control group): +
Behavior of gene caused by administration of chemical substance, Gene No. 533 (mRNA vs vehicle control group): +
Behavior of gene caused by administration of chemical substance, Gene No. 725 (mRNA vs vehicle control group): −
Behavior of gene caused by administration of chemical substance, Gene No. 1163 (mRNA vs vehicle control group): −
Behavior of gene caused by administration of chemical substance, Gene No. 4973 (mRNA vs vehicle control group): −
Behavior of gene caused by administration of chemical substance, Gene No. 4095 (mRNA vs vehicle control group): −
Behavior of gene caused by administration of chemical substance, Gene No. 1334 (mRNA vs vehicle control group): −
Behavior of gene caused by administration of chemical substance, Gene No. 6620 (mRNA vs vehicle control group): −
Behavior of gene caused by administration of chemical substance, Gene No. 6303 (mRNA vs vehicle control group): −
Behavior of gene caused by administration of chemical substance, Gene No. 5878 (mRNA vs vehicle control group): −
Behavior of gene caused by administration of chemical substance, Gene No. 1131 (mRNA vs vehicle control group): −
Behavior of gene caused by administration of chemical substance, Gene No. 1562 (mRNA vs vehicle control group): −
Behavior of gene caused by administration of chemical substance, Gene No. 1741 (mRNA vs vehicle control group): −
Behavior of gene caused by administration of chemical substance, Gene No. 893 (mRNA vs vehicle control group): −
Behavior of gene caused by administration of chemical substance, Gene No. 6026 (mRNA vs vehicle control group): −
Behavior of gene caused by administration of chemical substance, Gene No. 154 (mRNA vs vehicle control group): −
Behavior of gene caused by administration of chemical substance, Gene No. 1993 (mRNA vs vehicle control group): −
Behavior of gene caused by administration of chemical substance, Gene No. 813 (mRNA vs vehicle control group): −
Behavior of gene caused by administration of chemical substance, Gene No. 2494 (mRNA vs vehicle control group): −
Behavior of gene caused by administration of chemical substance, Gene No. 2546 (mRNA vs vehicle control group): −
Behavior of gene caused by administration of chemical substance, Gene No. 3776 (mRNA vs vehicle control group): −
Behavior of gene caused by administration of chemical substance, Gene No. 3929 (mRNA vs vehicle control group): −
Behavior of gene caused by administration of chemical substance, Gene No. 1119 (mRNA vs vehicle control group): −
Behavior of gene caused by administration of chemical substance, Gene No. 6742 (mRNA vs vehicle control group): −
Behavior of gene caused by administration of chemical substance, Gene No. 5634 (mRNA vs vehicle control group): −
Behavior of gene caused by administration of chemical substance, Gene No. 5726 (mRNA vs vehicle control group): −

C[C@H](CCC(=O)O)[C@H]1CC[C@H]2[C@@H]3CC[C@@H]4C[C@H](O)CC[C@]4(C)[C@H]3CC[C@]12C [TS040, Lithocholic acid]
Behavior of gene caused by administration of chemical substance, Gene No. 4846: −
Behavior of gene caused by administration of chemical substance, Gene No. 2026: −
Behavior of gene caused by administration of chemical substance, Gene No. 4218: −
Behavior of gene caused by administration of chemical substance, Gene No. 6182: −
Behavior of gene caused by administration of chemical substance, Gene No. 5600: −
Behavior of gene caused by administration of chemical substance, Gene No. 1494: −
Behavior of gene caused by administration of chemical substance, Gene No. 2045: −
Behavior of gene caused by administration of chemical substance, Gene No. 2203: −
Behavior of gene caused by administration of chemical substance, Gene No. 533: −
Behavior of gene caused by administration of chemical substance, Gene No. 725: −
Behavior of gene caused by administration of chemical substance, Gene No. 1163: −
Behavior of gene caused by administration of chemical substance, Gene No. 4973: −
Behavior of gene caused by administration of chemical substance, Gene No. 4095: −
Behavior of gene caused by administration of chemical substance, Gene No. 1334: −
Behavior of gene caused by administration of chemical substance, Gene No. 6620: −
Behavior of gene caused by administration of chemical substance, Gene No. 6303: −
Behavior of gene caused by administration of chemical substance, Gene No. 5878: −
Behavior of gene caused by administration of chemical substance, Gene No. 1131: −
Behavior of gene caused by administration of chemical substance, Gene No. 1562: −
Behavior of gene caused by administration of chemical substance, Gene No. 1741: −
Behavior of gene caused by administration of chemical substance, Gene No. 893: −
Behavior of gene caused by administration of chemical substance, Gene No. 6026: −
Behavior of gene caused by administration of chemical substance, Gene No. 154: −
Behavior of gene caused by administration of chemical substance, Gene No. 1993: −
Behavior of gene caused by administration of chemical substance, Gene No. 813: −
Behavior of gene caused by administration of chemical substance, Gene No. 2494: −
Behavior of gene caused by administration of chemical substance, Gene No. 2546: −
Behavior of gene caused by administration of chemical substance, Gene No. 3776: −
Behavior of gene caused by administration of chemical substance, Gene No. 3929: −
Behavior of gene caused by administration of chemical substance, Gene No. 1119: −
Behavior of gene caused by administration of chemical substance, Gene No. 6742: +
Behavior of gene caused by administration of chemical substance, Gene No. 5634: −
Behavior of gene caused by administration of chemical substance, Gene No. 5726: −
